Starred links: 1 amine or outer side, 2 acyl side, 3 side chain; linkers in the order of their positions; H or OH if unused. Positions of bridges follow the written chain, without caps; N, C: chain ends. Non-standard residues stand in square brackets, D forms with d. Residues, ends and D or L forms follow the SMILES beside them. No end group written: not given here. *: point of attachment. hTyr(3S-OH,4S-OH,3'-OSO3H) = N[C@H](C(=O)O)[C@H](O)[C@@H](O)c1ccc(O)c(OS(=O)(=O)O)c1; Orn(4R-OH,5R-OH) = O=C([C@H](C[C@@H](O)[C@@H](O)N[*:3])N[*:1])[*:2]; Pro(3S-OH,4S-Me) = C[C@H]1CN[C@H](C(=O)O)[C@H]1O; X1 = CCCCCOc1ccc(-c2cc(-c3ccc(C(=O)*)cc3)no2)cc1; Gln(3R-OH) = NC(=O)C[C@@H](O)[C@H](N)C(=O)O; Hyp = O=C(O)[C@@H]1C[C@@H](O)CN1; pS = N[C@@H](COP(=O)(O)O)C(=O)O
Assays:
hCdc14A^3A [1] = experiment: Trans stimulation of hCdc14A^3A by synthetic SLiCE peptides; details: for stimulation of activity: near-saturating DiFMUP (300 μM), pH 7.5, 30 °C; for trans stimulation, interchangeability test: 2 mM peptide, 100 μM DiFMUP, 10 nM hCdc14A^3A, versus unstimulated
Method: (§1) B, same as panel A with WT hCdc14A that contains a functional SLiCE motif. […] All reactions contained 200 μM peptide substrate and were run for 30 min. […] Data are means of six measurements and error bars are SDs. D, same as panel C with hCdc14A enzyme at 1 μM for human SLiCE substrate and 100 nM for yeast SLiCE and Acm1pS3 substrates. E, peptide stimulation assays using 10 μM DiFMUP as substrate were conducted as in Figures 3A and 6A with ScCdc14^1-374 (50 nM) and 2 mM each stimulating peptide. F, same as panel E with hCdc14A^3A (10 nM) using 100 μM DiFMUP.
(§2) For trans peptide stimulation assays, DiFMUP was used at a single concentration well above the measured KM for each enzyme. […] (where pS is phosphoSer), were assayed in Cdc14 reaction buffer with Biomol Green (Enzo Life Science) detection of released inorganic phosphate as previously described ([29]). Data were fit with a modified Michaelis–Menten equation including a substrate inhibition term in Prism.

WT hCdc14A = experiment: Trans stimulation of WT hCdc14A by synthetic SLiCE peptides; details: near-saturating DiFMUP (300 μM), pH 7.5, 30 °C
Method: as §1, §2

hCdc14A [2] = experiment: Inhibition of hCdc14A activity toward DiFMUP (not shown); assay type: biochemical, human
ScCdc14 = experiment: Inhibition of ScCdc14 activity toward DiFMUP (not shown); assay type: biochemical, Saccharomyces cerevisiae
hCdc14A [3] = experiment: Dephosphorylation of SLiCE phosphopeptides by hCdc14A; details: 200 μM peptide, 30 min; enzyme 1 μM (human SLiCE), 100 nM (yeast SLiCE and Acm1pS3); mean of six
Method: as §1, §2

ScCdc14^1-449 = ScCdc14^1-449 (Saccharomyces cerevisiae, UniProt Q00684); experiment: Dephosphorylation of SLiCE phosphopeptides by ScCdc14^1-449; details: 200 μM peptide, 30 min; enzyme 50 nM (yeast SLiCE), 1 μM (human SLiCE), 25 nM (Acm1pS3); mean of six
Method: as §1, §2

ScCdc14^1-374 = experiment: Trans stimulation of ScCdc14^1-374 by synthetic SLiCE peptides; assay type: biochemical, Saccharomyces cerevisiae; details: for trans stimulation, interchangeability test: 2 mM peptide, 10 μM DiFMUP, 50 nM ScCdc14^1-374, versus unstimulated
hCdc14A^1-413 = biological target: T1, hCdc14A^1-413 (Homo sapiens, UniProt Q9UNH5); details: n = 3
T1 construct: gene CDC14A
Method: (§3) Data from velocity versus substrate concentration plots were fit with the Michaelis–Menten equation in GraphPad Prism (https://www.graphpad.com/) to determine steady-state kinetic parameters kcat and KM. For trans peptide stimulation assays, DiFMUP was used at a single concentration well above the measured KM for each enzyme. […] (where pS is phosphoSer), were assayed in Cdc14 reaction buffer with Biomol Green (Enzo Life Science) detection of released inorganic phosphate as previously described ([29]). Data were fit with a modified Michaelis–Menten equation including a substrate inhibition term in Prism.
(§4) B, initial velocities as a function of increasing DiFMUP concentration were measured under steady-state conditions for the indicated ScCdc14 variants. […] Data are average values from at least three independent measurements. Error bars are SDs. Lines are best fits for the Michaelis–Menten equation. C, to better visualize differences in KM, all Vmax values from data in panel A were normalized to 1. […] E, a representative presteady-state reaction progress graph for reaction of the indicated ScCdc14 enzyme variants with 200 μM DiFMUP, measured in a stopped flow spectrofluorometer. Data were fit with Equation 1 (see Experimental procedures) to generate rates of the burst phase (kburst) of the reaction. […]

hCdc14A^Q395A = biological target: T2, hCdc14A^Q395A (Homo sapiens, UniProt Q9UNH5, Q395A); details: n = 3
T2 construct: gene CDC14A
Method: as §3, §4

hCdc14A^3A [4] = biological target: T3, hCdc14A^3A (Homo sapiens, UniProt Q9UNH5, L399A/R400A/K403A); details: n = 3
T3 construct: gene CDC14A
Method: as §3, §4

[5] = tested on: C. albicans cdc14^S411A and cdc14^S411E strains; experiment: Agar plate patch assay, C. albicans cdc14 mutant strains; details: colonies arising from cdc14^S411A and cdc14^S411E strains; YPD + 50 ng/ml micafungin
Method: Values are means of at least six independent measurements and error bars are SDs. […] E, agar plate patch assay with the indicated Candida albicans strains on YPD or YPD + 50 ng/ml micafungin. Plates were incubated at 30 °C for 72 h prior to imaging. Images in panels D and E are representative of multiple experiments performed with three independent isolates of the Ala and Glu mutant strains.
S. cerevisiae and C. albicans cultures were grown in yeast extract/peptone/dextrose (YPD) medium (10 g/l yeast extract, 20 g/l peptone, and 20 g/l glucose) at 30 °C with shaking at 225 rpm. C. albicans strains were supplemented with 8 μg/ml uridine. […] Agar was added to 20% (w/v) for growth on solid medium. […] For C. albicans patch assays, single colonies were resuspended in 100 μl PBS and spread on YPD agar plates ± 50 ng/ml micafungin.

Chain of ScCdc14^1-449 (Q00684 1-449): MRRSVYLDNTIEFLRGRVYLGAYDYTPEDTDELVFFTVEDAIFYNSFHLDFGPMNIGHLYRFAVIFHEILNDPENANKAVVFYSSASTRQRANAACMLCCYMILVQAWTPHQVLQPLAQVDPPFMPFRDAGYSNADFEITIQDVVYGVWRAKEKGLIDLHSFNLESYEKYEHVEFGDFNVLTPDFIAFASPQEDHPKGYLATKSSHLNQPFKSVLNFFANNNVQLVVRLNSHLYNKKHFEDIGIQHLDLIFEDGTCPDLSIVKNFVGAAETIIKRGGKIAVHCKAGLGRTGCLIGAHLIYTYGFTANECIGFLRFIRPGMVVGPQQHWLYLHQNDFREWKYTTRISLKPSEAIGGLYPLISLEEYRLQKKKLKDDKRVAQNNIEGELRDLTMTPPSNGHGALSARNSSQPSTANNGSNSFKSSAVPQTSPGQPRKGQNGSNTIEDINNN
T3 sequence (Q9UNH5 1-413 L399A/R400A/K403A): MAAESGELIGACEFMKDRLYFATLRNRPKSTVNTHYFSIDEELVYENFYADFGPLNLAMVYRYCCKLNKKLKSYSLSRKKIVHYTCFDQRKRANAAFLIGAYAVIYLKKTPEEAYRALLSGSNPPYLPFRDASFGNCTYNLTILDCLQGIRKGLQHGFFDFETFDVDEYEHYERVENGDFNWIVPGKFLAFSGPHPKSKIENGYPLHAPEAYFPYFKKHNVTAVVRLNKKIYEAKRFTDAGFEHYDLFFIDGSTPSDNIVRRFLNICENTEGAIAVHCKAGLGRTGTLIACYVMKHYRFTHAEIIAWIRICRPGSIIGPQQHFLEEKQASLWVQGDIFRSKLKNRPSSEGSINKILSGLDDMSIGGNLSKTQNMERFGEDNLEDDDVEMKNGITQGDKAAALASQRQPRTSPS
T2 sequence (Q9UNH5 1-413 Q395A): as the sequence (Q9UNH5 1-413 L399A/R400A/K403A) above, with Q395A, A399L, A400R, A403K counted along it
T1 sequence (Q9UNH5 1-413): as the sequence (Q9UNH5 1-413 L399A/R400A/K403A) above, with A399L, A400R, A403K counted along it

For TAGDKLRALKSQR [Q395A peptide], the stimulation of activity (hCdc14A^3A [1]) was “little effect on activity of either enzyme” and the stimulation of activity (WT hCdc14A) was “little effect on activity of either enzyme”.

“T[pS]GDKLRALKSQR [human SLiCE phosphopeptide, T(pS)… where pS is phosphoserine]” was tested, and the “inhibition of activity toward DiFMUP” value (hCdc14A [2]) was “unable to detect any inhibition”, the “inhibition of activity toward DiFMUP” value (ScCdc14) was “unable to detect any inhibition” and the dephosphorylation as substrate (hCdc14A [3]) was “could not be dephosphorylated”. For the same compound, the dephosphorylation as substrate (ScCdc14^1-449) was “could not be dephosphorylated”.

For “QTSPG[pS]PRKGQN [yeast SLiCE phosphopeptide]”, the dephosphorylation as substrate (ScCdc14^1-449) was “excellent Cdc14 substrate for both ScCdc14 and hCdc14A, almost as reactive as the optimal Acm1pS3 phosphopeptide”.

With QTSPGQPRKGQN [yeast SLiCE peptide] the “trans stimulation, interchangeability test” value (ScCdc14^1-374) was “only able to significantly stimulate ScCdc14”, the “stimulation of catalytic rate” value (ScCdc14^1-374; near-saturating DiFMUP (60 μM), pH 7.5, 30 °C, normalized to no added peptide, at least three independent measurements) was “dose-dependent stimulation” and the “trans stimulation, interchangeability test” value (hCdc14A^3A [1]) was “no effect on hCdc14A activity”.

Work on `Cc1cc(=O)oc2c(F)c(OP(=O)(O)O)c(F)cc12` [DiFMUP] yielded a Km (hCdc14A^1-413) of 24 µM, a Km (hCdc14A^Q395A) of 2600 nM and a Km (hCdc14A^3A [4]) of 520 nM.

With TQGDKAAALASQR [3A peptide] the stimulation of activity (hCdc14A^3A [1]) was “little effect on activity of either enzyme” and the stimulation of activity (WT hCdc14A) was “little effect on activity of either enzyme”.

In the case of TQGDKLRALKSQR [human SLiCE peptide], the “trans stimulation, interchangeability test” value (ScCdc14^1-374) is reported as “failed to significantly stimulate ScCdc14”, the “trans stimulation, interchangeability test” value (hCdc14A^3A [1]) is reported as “strongly stimulating hCdc14A” and the stimulation of activity (hCdc14A^3A [1]) is reported as “strongly stimulated activity”. For the same compound, the stimulation of activity (WT hCdc14A) was “relatively small effect”.

`CCCCCOc1ccc(-c2cc(-c3ccc(C(=O)N[C@H]4C[C@@H](O)[C@@H](O)NC(=O)[C@@H]5[C@@H](O)[C@@H](C)CN5C(=O)[C@H]([C@H](O)CC(N)=O)NC(=O)[C@H]([C@H](O)[C@@H](O)c5ccc(O)c(OS(=O)(=O)O)c5)NC(=O)[C@@H]5C[C@@H](O)CN5C(=O)[C@H]([C@@H](C)O)NC4=O)cc3)no2)cc1` [micafungin] (X1-[Orn(4R-OH,5R-OH)]T[Hyp][hTyr(3S-OH,4S-OH,3'-OSO3H)][Gln(3R-OH)][Pro(3S-OH,4S-Me)]; lactam 1-C) was tested, and the “sensitivity of sporadic faster growing colonies” value [5] was “resistant”.

— PMC11407943, “Cdc14 phosphatases use an intramolecular pseudosubstrate motif to stimulate and regulate catalysis” (The Journal of Biological Chemistry, 2024)
